Measured values from PMC6407917, “Identification of GSK3186899/DDD853651 as a Preclinical Development Candidate for the Treatment of Visceral Leishmaniasis” (Journal of Medicinal Chemistry, 2018).

Key:
Assay in all cases: biochemical
Design in all cases: species or system HEK293/K-562/placenta mixed human extract; Kinobeads chemoproteomic competition binding, quantified by TMT LC-MS/MS, dose response up to 20 uM
[1] = biological target: TGFBR1 (Homo sapiens, UniProt P36897)
[2] = biological target: FGR (Homo sapiens, UniProt P09769)
[3] = biological target: PKN1 (Homo sapiens, UniProt Q16512)
[4] = biological target: WEE1 (Homo sapiens, UniProt P30291)
[5] = biological target: TESK2 (Homo sapiens, UniProt Q96S53)
[6] = biological target: FYN (Homo sapiens, UniProt P06241)
[7] = biological target: MAP2K6 (Homo sapiens, UniProt P52564)
[8] = biological target: LRRK2 (Homo sapiens, UniProt Q5S007)
[9] = biological target: PRKD1 (Homo sapiens, UniProt Q15139)
[10] = biological target: CAMK2G (Homo sapiens, UniProt Q13555)
[11] = biological target: PLK1 (Homo sapiens, UniProt P53350)
[12] = biological target: CSNK1D (Homo sapiens, UniProt P48730)
[13] = biological target: GSK3A (Homo sapiens, UniProt P49840)
[14] = biological target: PRKAR2B (Homo sapiens, UniProt P31323)
[15] = biological target: MARK1 (Homo sapiens, UniProt Q9P0L2)
[16] = biological target: SYK (Homo sapiens, UniProt P43405)
[17] = biological target: KDR (Homo sapiens, UniProt P35968)
[18] = biological target: STK39 (Homo sapiens, UniProt Q9UEW8)
[19] = biological target: PHKA2 (Homo sapiens, UniProt P46019)
[20] = biological target: HIPK3 (Homo sapiens, UniProt Q9H422)
[21] = biological target: TESK1 (Homo sapiens, UniProt Q15569)

Measured: IC50

TESK2, sequence (Q96S53 whole entry): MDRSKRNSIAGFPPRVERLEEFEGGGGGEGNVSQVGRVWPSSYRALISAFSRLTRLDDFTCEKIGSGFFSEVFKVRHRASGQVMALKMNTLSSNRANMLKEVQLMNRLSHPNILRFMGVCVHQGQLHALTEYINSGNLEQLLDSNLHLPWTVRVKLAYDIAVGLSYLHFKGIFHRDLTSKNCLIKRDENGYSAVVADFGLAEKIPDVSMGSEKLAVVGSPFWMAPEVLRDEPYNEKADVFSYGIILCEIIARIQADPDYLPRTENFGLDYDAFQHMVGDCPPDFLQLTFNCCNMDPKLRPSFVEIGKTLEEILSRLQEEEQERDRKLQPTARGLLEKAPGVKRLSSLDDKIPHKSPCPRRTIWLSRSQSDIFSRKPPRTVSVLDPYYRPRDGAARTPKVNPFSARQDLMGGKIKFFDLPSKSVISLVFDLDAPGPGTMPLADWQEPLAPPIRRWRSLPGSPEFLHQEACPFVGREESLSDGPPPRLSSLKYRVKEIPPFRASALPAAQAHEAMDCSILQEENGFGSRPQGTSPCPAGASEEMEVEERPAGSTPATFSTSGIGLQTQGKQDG
MAP2K6, sequence (P52564 whole entry): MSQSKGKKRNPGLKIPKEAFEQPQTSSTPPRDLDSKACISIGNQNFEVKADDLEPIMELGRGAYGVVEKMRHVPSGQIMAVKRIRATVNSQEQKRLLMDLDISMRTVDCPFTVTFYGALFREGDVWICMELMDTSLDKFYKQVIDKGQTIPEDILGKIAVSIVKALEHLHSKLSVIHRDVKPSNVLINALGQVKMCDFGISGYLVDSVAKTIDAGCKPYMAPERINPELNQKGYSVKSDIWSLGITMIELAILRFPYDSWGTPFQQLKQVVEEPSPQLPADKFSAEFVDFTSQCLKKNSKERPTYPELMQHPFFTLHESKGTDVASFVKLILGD
TGFBR1, sequence (P36897 whole entry): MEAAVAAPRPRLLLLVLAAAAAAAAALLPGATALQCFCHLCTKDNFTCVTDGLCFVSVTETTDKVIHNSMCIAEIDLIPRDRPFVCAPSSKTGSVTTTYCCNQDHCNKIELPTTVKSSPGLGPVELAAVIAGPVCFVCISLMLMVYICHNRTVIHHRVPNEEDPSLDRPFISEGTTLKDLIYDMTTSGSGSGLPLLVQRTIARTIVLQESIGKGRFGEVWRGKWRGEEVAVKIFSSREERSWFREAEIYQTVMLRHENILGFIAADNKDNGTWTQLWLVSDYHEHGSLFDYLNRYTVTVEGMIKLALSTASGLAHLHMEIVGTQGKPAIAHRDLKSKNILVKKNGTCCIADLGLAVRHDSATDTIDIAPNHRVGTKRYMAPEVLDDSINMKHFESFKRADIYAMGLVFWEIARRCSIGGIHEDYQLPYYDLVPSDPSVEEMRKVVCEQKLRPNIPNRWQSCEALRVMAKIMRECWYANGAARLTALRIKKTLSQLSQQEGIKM
FGR, sequence (P09769 whole entry): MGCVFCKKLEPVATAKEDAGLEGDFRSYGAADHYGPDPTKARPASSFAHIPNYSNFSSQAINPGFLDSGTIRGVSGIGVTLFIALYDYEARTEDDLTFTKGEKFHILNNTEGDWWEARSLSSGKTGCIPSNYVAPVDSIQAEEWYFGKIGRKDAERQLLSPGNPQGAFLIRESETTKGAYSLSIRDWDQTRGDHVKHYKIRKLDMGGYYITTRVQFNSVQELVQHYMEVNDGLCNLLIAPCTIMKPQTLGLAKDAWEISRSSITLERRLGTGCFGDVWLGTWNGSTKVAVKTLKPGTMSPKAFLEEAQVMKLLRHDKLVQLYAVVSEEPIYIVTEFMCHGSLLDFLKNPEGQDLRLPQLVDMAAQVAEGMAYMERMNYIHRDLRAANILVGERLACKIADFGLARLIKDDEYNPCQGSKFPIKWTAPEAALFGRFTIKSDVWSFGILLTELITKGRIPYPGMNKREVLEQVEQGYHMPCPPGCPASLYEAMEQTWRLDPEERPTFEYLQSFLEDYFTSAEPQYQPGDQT
PRKAR2B, sequence (P31323 whole entry): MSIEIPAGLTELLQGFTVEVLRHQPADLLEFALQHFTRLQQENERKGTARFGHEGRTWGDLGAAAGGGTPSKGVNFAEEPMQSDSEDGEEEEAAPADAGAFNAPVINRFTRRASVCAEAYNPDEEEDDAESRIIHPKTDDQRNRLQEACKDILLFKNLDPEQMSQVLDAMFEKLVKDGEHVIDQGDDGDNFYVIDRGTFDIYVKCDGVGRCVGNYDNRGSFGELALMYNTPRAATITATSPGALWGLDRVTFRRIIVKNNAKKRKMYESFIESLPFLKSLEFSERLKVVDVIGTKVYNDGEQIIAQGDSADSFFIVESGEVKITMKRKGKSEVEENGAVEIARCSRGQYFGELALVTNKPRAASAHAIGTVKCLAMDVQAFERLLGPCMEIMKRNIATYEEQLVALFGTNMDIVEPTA
PKN1, sequence (Q16512 whole entry): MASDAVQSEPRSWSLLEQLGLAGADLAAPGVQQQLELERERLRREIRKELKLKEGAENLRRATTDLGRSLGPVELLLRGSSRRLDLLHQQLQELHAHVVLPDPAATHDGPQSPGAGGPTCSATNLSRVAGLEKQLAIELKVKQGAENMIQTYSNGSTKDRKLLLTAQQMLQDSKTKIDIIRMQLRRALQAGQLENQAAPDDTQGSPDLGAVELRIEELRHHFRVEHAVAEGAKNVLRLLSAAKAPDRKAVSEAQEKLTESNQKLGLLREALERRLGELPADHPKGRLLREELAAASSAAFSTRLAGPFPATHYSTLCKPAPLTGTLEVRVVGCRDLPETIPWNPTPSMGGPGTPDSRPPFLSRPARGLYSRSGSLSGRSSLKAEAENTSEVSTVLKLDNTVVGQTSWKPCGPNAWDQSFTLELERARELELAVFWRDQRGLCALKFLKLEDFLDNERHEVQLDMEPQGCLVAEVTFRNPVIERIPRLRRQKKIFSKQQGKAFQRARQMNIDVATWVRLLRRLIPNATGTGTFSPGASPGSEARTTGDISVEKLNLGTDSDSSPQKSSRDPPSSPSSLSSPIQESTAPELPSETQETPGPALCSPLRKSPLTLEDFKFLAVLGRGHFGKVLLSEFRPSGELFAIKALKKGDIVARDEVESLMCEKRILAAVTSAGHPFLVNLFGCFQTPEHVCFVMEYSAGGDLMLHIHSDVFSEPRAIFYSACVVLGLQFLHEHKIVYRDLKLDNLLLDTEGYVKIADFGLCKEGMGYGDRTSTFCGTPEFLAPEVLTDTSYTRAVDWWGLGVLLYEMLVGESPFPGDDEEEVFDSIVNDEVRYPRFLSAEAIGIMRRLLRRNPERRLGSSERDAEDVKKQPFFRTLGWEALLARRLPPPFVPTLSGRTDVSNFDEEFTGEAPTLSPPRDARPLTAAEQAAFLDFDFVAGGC
MARK1, sequence (Q9P0L2 whole entry): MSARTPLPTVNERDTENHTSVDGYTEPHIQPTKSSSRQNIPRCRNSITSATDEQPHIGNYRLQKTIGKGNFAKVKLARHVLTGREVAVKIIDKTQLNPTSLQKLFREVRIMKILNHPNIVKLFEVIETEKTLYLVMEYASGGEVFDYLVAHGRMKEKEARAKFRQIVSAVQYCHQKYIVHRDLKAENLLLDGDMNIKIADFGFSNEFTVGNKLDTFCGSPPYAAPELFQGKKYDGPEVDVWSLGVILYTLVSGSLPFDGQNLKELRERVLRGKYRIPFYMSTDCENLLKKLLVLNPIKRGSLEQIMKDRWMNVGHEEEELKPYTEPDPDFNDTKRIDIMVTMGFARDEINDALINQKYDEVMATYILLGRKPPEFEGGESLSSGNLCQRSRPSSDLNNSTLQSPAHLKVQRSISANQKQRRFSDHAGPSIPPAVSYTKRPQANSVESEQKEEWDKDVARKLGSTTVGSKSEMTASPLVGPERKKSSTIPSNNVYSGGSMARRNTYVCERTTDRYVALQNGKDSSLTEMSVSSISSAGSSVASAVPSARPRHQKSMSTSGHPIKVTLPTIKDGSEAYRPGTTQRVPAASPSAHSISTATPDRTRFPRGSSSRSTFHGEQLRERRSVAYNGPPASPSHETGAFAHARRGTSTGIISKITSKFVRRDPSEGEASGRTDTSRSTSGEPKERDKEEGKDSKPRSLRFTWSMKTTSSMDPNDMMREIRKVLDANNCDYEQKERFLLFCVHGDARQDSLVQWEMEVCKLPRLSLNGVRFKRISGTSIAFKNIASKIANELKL
CSNK1D, sequence (P48730 whole entry): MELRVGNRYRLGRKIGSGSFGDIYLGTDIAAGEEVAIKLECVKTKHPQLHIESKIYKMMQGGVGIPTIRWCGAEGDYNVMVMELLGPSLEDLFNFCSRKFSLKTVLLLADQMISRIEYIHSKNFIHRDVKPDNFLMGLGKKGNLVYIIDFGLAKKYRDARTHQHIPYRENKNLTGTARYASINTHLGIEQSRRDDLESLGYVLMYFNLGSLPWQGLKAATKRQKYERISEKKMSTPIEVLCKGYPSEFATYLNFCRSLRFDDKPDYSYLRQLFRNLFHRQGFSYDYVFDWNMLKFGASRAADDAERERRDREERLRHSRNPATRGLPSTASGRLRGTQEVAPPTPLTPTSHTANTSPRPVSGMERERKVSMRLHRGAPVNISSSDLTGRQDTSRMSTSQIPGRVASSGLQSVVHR
GSK3A, sequence (P49840 whole entry): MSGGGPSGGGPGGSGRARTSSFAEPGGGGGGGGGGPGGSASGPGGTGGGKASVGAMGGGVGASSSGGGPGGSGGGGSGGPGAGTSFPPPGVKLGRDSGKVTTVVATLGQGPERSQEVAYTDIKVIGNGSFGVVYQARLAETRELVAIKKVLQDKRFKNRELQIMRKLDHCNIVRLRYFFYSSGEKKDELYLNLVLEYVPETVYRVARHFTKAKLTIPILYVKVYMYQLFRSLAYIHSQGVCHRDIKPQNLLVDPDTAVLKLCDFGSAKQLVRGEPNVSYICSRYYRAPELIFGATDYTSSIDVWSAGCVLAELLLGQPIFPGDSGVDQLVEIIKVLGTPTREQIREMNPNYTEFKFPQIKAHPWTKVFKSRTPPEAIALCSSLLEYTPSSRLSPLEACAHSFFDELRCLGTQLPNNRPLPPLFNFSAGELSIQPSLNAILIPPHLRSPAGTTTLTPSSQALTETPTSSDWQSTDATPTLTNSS

COc1ccccc1-c1n[nH]c2nc(N[C@H]3CC[C@H](NS(=O)(=O)CCC(F)(F)F)CC3)nc(OC)c12 [compound 31, 3,3,3-Trifluoro-N-(trans-4-((4-methoxy-3-(2-methoxyphenyl)-1H-pyrazolo[3,4-d]pyrimidin-6-yl)amino)cyclohexyl)propane-1-sulfonamide]
≥ 20 µM: all assays above
